For one assay, the system named is BRCA1-IRIS and survivin. Description: IHC of SKOV3 tumors for BRCA1-IRIS and survivin. It counts as in vivo, mice. As to conditions: SKOV3 tumors after treatment. An excerpt: Isolated tumors were mounted, sectioned and IHC stained for BRCA1-IRIS and survivin. […] It is possible that SKOV3 contain a heterogeneous population of cells that differ in their BRCA1-IRIS expression and thus that the remaining tumors are from those expressing no or low BRCA1-IRIS.
Immunohistochemistry (IHC). Ovarian tissue microarrays comprised of normal, cancer and metastatic tissues were purchased from US Biomax, Inc. Paraffin-embedded tissue sections were de-waxed in xylene and rehydrated in alcohol. Antigen-retrieval for FOXO3a and survivin was performed by heating the slides in citrate buffer (10 μM, pH 6.0) using microwave for 10 minutes. Slides were then cooled to room temperature (RT) and washed with water followed by PBS for 15 minutes each. Antigen-retrieval for BRCA1-IRIS was performed by incubating the slides in pepsin (10 μM) for 20 minutes at 37° C. Endogenous peroxidase activity was suppressed by treating the slides with 3% hydrogen peroxide for 10 minutes. After washing steps slides were incubated for 1 hour at room temperature with antibodies to human FOXO3a (Cell Signaling Technology, USA 1:400) and survivin (Cell Signaling Technology, USA 1:400). For BRCA1-IRIS staining, slides were incubated overnight at 4° C. with monoclonal BRCA1-IRIS antibody at a 1:75 dilution. […]

The next assay has as its system BT549 cells. As to conditions: 48 h.
The subject of assay [1] is HME, HME/IRIS, MDA-MB-231, MDA-MB-468 and BT549 cells. Kind of assay: Survival of breast cell lines with IRIS peptide, paclitaxel or both. As to conditions: all cell lines; IRIS peptide alone, 0.5 μM (HME) or 5 μM (others), 24 hours. It counts as cell-based, human. The method, then:
To investigate whether inactivating BRCA1-IRIS could sensitize TNBC to paclitaxel-induced cell death, HME cells were exposed to 0.5 μM, while HME/IRIS, MDA-MB-231, MDA-MB-468 and BT549 cells were exposed to 5 μM of IRIS peptide alone or with 5, 10 or 20 μM of paclitaxel for 24 hours. […] Again, IRIS peptide alone at these concentrations led to 50% reduction in survival of all cell lines. […] Indeed, in the presence of IRIS peptide >60%, >70% and >90% reduction in the survival of all cell lines in the presence of 5, 10 and 20 μM of paclitaxel, respectively (FIG. 84).
Cell viability measurement. Cell viability under different experimental conditions was determined using the MTS assay. Briefly, cells (2.5×10^4 cells per well) were seeded in 96-well plates and incubated overnight at 37° C. in 10% humidified CO2 atmosphere. The next day they were incubated with varying concentration of peptide, or inhibitors for 24 hours at 37° C. Cell viability was determined using cell Titer 96® Aqueous (Promega, Madison, Wis., USA) following manufacturer's instructions. Cell viability (%) was expressed as a ratio of treated cells to control cells×100. Growth inhibition was also determined by manually counting cells in five different microscopic fields. Change in cell numbers (fold) was expressed as a ratio of the means of these recording of treated cells compared to control cells×100. Each experiment was done in triplicate, repeated three separate times.

Assay [2] relates to BRCA1-IRIS, TrkB, ErbB2, AKT, p-AKT, p-FOXO, Cyclin D1, Bcl-2 and survivin. Description: Expression of growth and survival proteins in HOSE and HOSE/IRIS cells (Western). It counts as cell-based, human. As to conditions: IRIS peptide 5 μM, cisplatin 10 μM, combination 2.5 μM IRIS peptide + 5 μM cisplatin. The source says:
HOSE cells overexpressing IRIS show a higher degree of resistance to cisplatin than HOSE cells (compare blue to black line in FIG. 30).

For a further assay, the system named is HME/IRIS cells. As to conditions: 48 h.
The subject of another assay is MDA-MB-468 cells. As to conditions: 48 h.
The next assay relates to SKOV3 tumors. Kind of assay: In vivo efficacy on established SKOV3 tumors. On the set-up: species or system mice. As to conditions: day 16; cisplatin 5 mg/kg i.p., IRIS peptide 10 mg/kg i.t., every third day, four times. As to the method: Further, to determine whether IRIS peptide could have any efficacy in vivo and/or whether it sensitizes ovarian tumors to low, clinically relevant concentrations of cisplatin, four sets of nude mice (n=6 each) were subcutaneously injected with SKOV3 cells. Ten days later, when tumors were ˜250 mm^3 in volume, one group was treated with controls (i.e. DMSO delivered i.p. and scrambled peptide delivered directly into the tumors, i.t.), a second group was treated with cisplatin (5 mg/kg, delivered i.p.), a third group was treated with IRIS peptide (10 mg/kg, injected i.t.), and a fourth group was treated with both. Treatments were delivered every third day for a total of four times. For the next 16 days, tumors were measured daily with a caliper. Mice were then sacrificed, and their tumors or their remnants were taken.
Efficacy of BRCA1-IRIS inhibitory peptide, in vivo. Six to eight week old female athymic SCID mice were injected subcutaneously with 2.5×10^6 SKOV3 cells in the flank region. Their respective tumor growth was measured with a caliper. When the tumor volume reached 250 mm^3, mice were randomly grouped into four groups. One group (control) was treated with scrambled peptide (10 mg/kg) and DMSO. A second was treated with BRCA1-IRIS inhibitory peptide (10 mg/kg, body weight). […] Change in tumor volume was measured to monitor the efficacy of the treatment. […]

Ends that are not written are not given here.

Procedure for HME/IRIS cells: (§1) All cell lines were exposed to increasing concentrations of paclitaxel and BRCA1-IRIS expression, and cells' viability was then measured.
Cell viability measurement. Cell viability under different experimental conditions was determined using the MTS assay. Briefly, cells (2.5×10^4 cells per well) were seeded in 96-well plates and incubated overnight at 37° C. in 10% humidified CO2 atmosphere. The next day they were incubated with varying concentration of peptide, or inhibitors for 24 hours at 37° C. Cell viability was determined using cell Titer 96® Aqueous (Promega, Madison, Wis., USA) following manufacturer's instructions. Cell viability (%) was expressed as a ratio of treated cells to control cells×100. […] Each experiment was done in triplicate, repeated three separate times.
Procedure for MDA-MB-468 cells: as §1
Stable clones were then exposed to 0, 10 or 20 μM of EGFR (Erlotinib), ErbB2 (CP-724714), PI3′K/AKT (LY294002), p38 (SB203580), ERK (PD98059) or JNK (SP600125) inhibitors for 24 hours.
First, to assess the effect of this IRIS peptide, equal numbers of HME, HME/IRIS, MDA-MB-231, MDA-MB-468 and BT549 cells were exposed to increasing concentrations of scrambled or IRIS peptide for 48 hours.

By IC50 is commonly meant the concentration that gives 50% inhibition. Regarding “RRIRPRPPRLPRPRPRPLPFPRPGIGTRFLCLPQSIYRSELNVYAFGEHILQISKYS [IRIS peptide]”, the “BRCA1-IRIS and survivin staining of remaining tumor” value in the assay with BRCA1-IRIS and survivin is “almost complete absence of BRCA1-IRIS and survivin staining”. For the same sequence, the concentration for half-maximal inhibition (IC50) in the assay on BT549 cells, in the assay on HME/IRIS cells and in the assay on MDA-MB-468 cells was ~5 µM throughout. The reduction in survival in assay [1] is recorded as 50%. In addition, the “expression of BRCA1-IRIS, TrkB, ErbB2, AKT, p-AKT, p-FOXO, Cyclin D1, Bcl-2 and survivin” value in assay [2] was “significant decrease”. Besides, in the assay on SKOV3 tumors, the “reduction in tumor size” value is ~50%.

These data come from patent US9303069B2, “Peptides for treating cancer” (University of Mississippi Medical Center, priority 2014, dated 2016).
